# Laboratory results published in the supplement of paper PMC11061612.
# Columns and labels:
# Assay in all cases: Bliss excess, mean over the matrix (fraction); higher = more synergy
# [1] = tested on: SCC-15 (Oral Cavity Carcinoma)
# Outline: (§1)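 Cell lines grown in DMEM/F12 or RPMI with 10% FBS were plated in 1536-well plates and held 24 hours at 37°C, 5% CO2 before 72 hours of exposure to two-drug dose matrices, with DMSO typically at 0.2%. CellTiter-Glo 2.0 luminescence gave viability, which was converted to inhibition. Vehicle wells were set to 0 and blank wells to 1. Combination Emax is the second-highest inhibition in the matrix, and Bliss excess is the observed combination effect minus the expected EA + EB − EA·EB, where EA and EB are the single-agent effects.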
# [2] = tested on: EoL-1-cell (Acute Myeloid Leukemia)
# Outline: as §1
# [3] = tested on: MLMA (Other Blood Carcinomas)
# Outline: as §1
# [4] = tested on: KARPAS-299 (T-Cell Non-Hodgkin's Lymphoma)
# Outline: as §1
# [5] = tested on: NCI-H727 (Other Solid Carcinomas)
# Outline: as §1
# [6] = tested on: RF-48 (B-Cell Non-Hodgkin's Lymphoma)
# Outline: as §1
# [7] = tested on: Caov-4 (Ovarian Carcinoma)
# Outline: as §1
# [8] = tested on: AMO-1 (Plasma Cell Myeloma)
# Outline: as §1
# [9] = tested on: PANC-04-03 (Pancreatic Carcinoma)
# Outline: as §1
# [10] = tested on: NCI-H1915 (Non-Small Cell Lung Carcinoma)
# Outline: as §1
# [11] = tested on: SW13 (Other Solid Carcinomas)
# Outline: as §1
# [12] = tested on: BT-549 (Breast Carcinoma)
# Outline: as §1
# NB69 (Neuroblastoma) = tested on: NB69 (Neuroblastoma)
# Outline: as §1
# [13] = tested on: EFM-19 (Breast Carcinoma)
# Outline: as §1
# [14] = tested on: MIA-PaCa-2 (Pancreatic Carcinoma)
# Outline: as §1
# TK10 (Kidney Carcinoma) = tested on: TK10 (Kidney Carcinoma)
# Outline: as §1
# D-263MG (Glioblastoma) = tested on: D-263MG (Glioblastoma)
# Outline: as §1
# [15] = tested on: TE-1 (Esophageal Squamous Cell Carcinoma)
# Outline: as §1
# UACC-62 (Melanoma) = tested on: UACC-62 (Melanoma)
# Outline: as §1
# [16] = tested on: HOP-62 (Lung Adenocarcinoma)
# Outline: as §1
Structure (SMILES),Bliss excess [1],Bliss excess [2],Bliss excess [3],Bliss excess [4],Bliss excess [5],Bliss excess [6],Bliss excess [7],Bliss excess [8],Bliss excess [9],Bliss excess [10],Bliss excess [11],Bliss excess [12],Bliss excess (NB69 (Neuroblastoma)),Bliss excess [13],Bliss excess [14],Bliss excess (TK10 (Kidney Carcinoma)),Bliss excess (D-263MG (Glioblastoma)),Bliss excess [15],Bliss excess (UACC-62 (Melanoma)),Bliss excess [16]
"COc1cccc(OCCCN)c1-c1cc(Nc2cnc(C#N)cn2)n[nH]1 [Prexasertib] + Cc1cc2ncnn2cc1Nc1ncc2c(n1)n(C1CCOCC1)c(=O)n2C [AZD7648] (first compound max 1 µM, 7x7, partner max 10 µM)",-0.0065,-0.0003,-0.0204,-0.0226,-0.022,-0.0549,-0.0361,-0.004,-0.0327,-0.008,0.0009,-0.0341,0.0182,-0.0676,-0.0172,0.0053,-0.0394,-0.0266,-0.0125,-0.0063
"COc1cccc(OCCCN)c1-c1cc(Nc2cnc(C#N)cn2)n[nH]1 [Prexasertib] + O=C(c1cc(Cc2n[nH]c(=O)c3ccccc23)ccc1F)N1CCN(C(=O)C2CC2)CC1 [Olaparib] (first compound max 1 µM, 7x7, partner max 10 µM)",0.0242,-0.0146,-0.0442,-0.0318,-0.259,-0.0216,-0.0542,-0.0584,-0.0415,-0.0002,0.0024,0.0195,-0.0313,-0.0094,-0.0781,-0.0975,-0.0665,-0.11,-0.0183,-0.0319
"CCc1c2c(nc3ccc(O)cc13)-c1cc3c(c(=O)n1C2)COC(=O)[C@]3(O)CC [SN-38] + CN(C)CCCOc1ccc(-c2ccc3ncc4c(c3c2)n(C2CCOCC2)c(=O)n4C)cn1 [AZD0156] (first compound max 0.3 µM, 7x7, partner max 1 µM)",0.0092,0.098,-0.0501,0.071,-0.006,-0.0098,0.0268,-0.103,-0.0226,-0.0563,0.0279,-0.0888,0.0106,-0.064,0.0279,0.028,0.0701,0.0182,0.0077,0.0182
"Cn1cnc2c(F)c(Nc3ccc(Br)cc3Cl)c(C(=O)NOCCO)cc21 [Selumetinib] + C=CCn1c(=O)c2cnc(Nc3ccc(N4CCN(C)CC4)cc3)nc2n1-c1cccc(C(C)(C)O)n1 [AZD1775] (first compound max 10 µM, partner max 1 µM)",-0.075,-0.053,-0.0257,0.0463,-0.0891,-0.0372,-0.0097,-0.0108,-0.0351,-0.0462,-0.0576,-0.0578,-0.0004,-0.0121,0.0552,-0.0412,-0.0567,-0.0277,-0.0006,-0.0468
"Cn1cnc2c(F)c(Nc3ccc(Br)cc3Cl)c(C(=O)NOCCO)cc21 [Selumetinib] + CC(C)n1c(=O)n(C)c2cnc3cc(F)c(-c4ccc(OCCCN5CCCCC5)nc4)cc3c21 [AZD1390] (first compound max 10 µM, 7x7, partner max 0.3 µM)",-0.0462,0.0004,-0.0186,0.0285,-0.0229,-0.056,-0.0382,0.0291,-0.0287,-0.061,0.0129,-0.0438,-0.0538,-0.0264,-0.0287,-0.0336,-0.0352,0.0347,-0.0092,-0.0451
"Cn1cnc2c(F)c(Nc3ccc(Br)cc3Cl)c(C(=O)NOCCO)cc21 [Selumetinib] + CCN(CCO)CCCOc1ccc2c(Nc3cc(CC(=O)Nc4cccc(F)c4)[nH]n3)ncnc2c1 [AZD2811] (first compound max 10 µM, 7x7, partner max 1 µM)",-0.0377,0.0206,-0.026,0.0227,-0.0389,-0.0305,-0.0643,0.0538,-0.0339,-0.038,-0.0919,-0.0216,-0.0155,0.0054,0.0585,-0.0589,-0.0385,0.0378,-0.0289,-0.0772
"Cn1cnc2c(F)c(Nc3ccc(Br)cc3Cl)c(C(=O)NOCCO)cc21 [Selumetinib] + C[C@@H]1COCCN1C2=NC(=NC(=C2)C3(CC3)[S@](=N)(=O)C)C4=C5C=CNC5=NC=C4 [AZD6738] (first compound max 10 µM, 7x7, partner max 10 µM)",-0.0142,0.0058,-0.106,-0.013,0.0201,-0.0651,-0.0221,-0.0261,0.0023,-0.0264,0.0113,-0.0936,-0.0029,-0.0188,0.0499,-0.0373,-0.03,-0.0229,0.063,-0.0175
"CC(=O)Nc1cccc(-n2c(=O)n(C3CC3)c(=O)c3c(Nc4ccc(I)cc4F)n(C)c(=O)c(C)c32)c1 [Trametinib] + Cc1nc(-c2cn3c(n2)-c2ccc(-c4cnn(C(C)(C)C(N)=O)c4)cc2OCC3)n(C(C)C)n1 [Taselisib] (first compound max 1 µM, 7x7, partner max 10 µM)",0.171,0.232,-0.036,0.25,-0.0129,0.0627,0.0567,0.316,0.101,0.045,0.316,0.0203,0.0304,-0.0544,0.148,0.0739,0.132,0.127,-0.0422,0.0978
"CC1(C)CCC(CN2CCN(c3ccc(C(=O)NS(=O)(=O)c4ccc(NCC5CCOCC5)c([N+](=O)[O-])c4)c(Oc4cnc5[nH]ccc5c4)c3)CC2)=C(c2ccc(Cl)cc2)C1 [Venetoclax] + C1CN(CCC1(C(=O)N[C@@H](CCO)C2=CC=C(C=C2)Cl)N)C3=NC=NC4=C3C=CN4 [Capivasertib] (first compound max 1 µM, 7x7, partner max 3 µM)",-0.0639,0.0239,-0.0425,-0.0004,-0.0539,0.0226,-0.0458,-0.0267,-0.0732,-0.0362,-0.0238,-0.0385,0.0242,-0.0925,-0.0384,-0.0574,-0.0151,-0.0236,-0.0238,-0.0565
"CC1(C)CCC(CN2CCN(c3ccc(C(=O)NS(=O)(=O)c4ccc(NCC5CCOCC5)c([N+](=O)[O-])c4)c(Oc4cnc5[nH]ccc5c4)c3)CC2)=C(c2ccc(Cl)cc2)C1 [Venetoclax] + C=CCn1c(=O)c2cnc(Nc3ccc(N4CCN(C)CC4)cc3)nc2n1-c1cccc(C(C)(C)O)n1 [AZD1775] (first compound max 1 µM, partner max 1 µM)",-0.0159,0.0156,0.0421,0.008,0.0475,0.0016,0.0534,0.0861,-0.0597,-0.009,0.0496,-0.0152,-0.282,-0.0335,0.0944,-0.0444,0.0494,-0.0667,0.0405,-0.0635
"CC1(C)CCC(CN2CCN(c3ccc(C(=O)NS(=O)(=O)c4ccc(NCC5CCOCC5)c([N+](=O)[O-])c4)c(Oc4cnc5[nH]ccc5c4)c3)CC2)=C(c2ccc(Cl)cc2)C1 [Venetoclax] + CCN(CCO)CCCOc1ccc2c(Nc3cc(CC(=O)Nc4cccc(F)c4)[nH]n3)ncnc2c1 [AZD2811] (first compound max 1 µM, 7x7, partner max 1 µM)",-0.0051,0.0108,-0.0633,0.0871,-0.0795,0.0498,-0.0091,0.0249,-0.0565,0.0163,0.0311,-0.0111,0.0179,0.0005,-0.0362,-0.0927,0.0431,0.0056,-0.0027,-0.0222
"CC1(C)CCC(CN2CCN(c3ccc(C(=O)NS(=O)(=O)c4ccc(NCC5CCOCC5)c([N+](=O)[O-])c4)c(Oc4cnc5[nH]ccc5c4)c3)CC2)=C(c2ccc(Cl)cc2)C1 [Venetoclax] + CN(C)CCCOc1ccc(-c2ccc3ncc4c(c3c2)n(C2CCOCC2)c(=O)n4C)cn1 [AZD0156] (first compound max 1 µM, 7x7, partner max 1 µM)",-0.0146,0.0038,0.0062,0.0353,-0.0499,-0.0109,-0.0256,-0.0122,-0.062,-0.018,0.027,-0.0049,-0.0548,-0.0184,0.0184,-0.0782,0.0045,-0.0468,0.0254,-0.0677
"CC1(C)CCC(CN2CCN(c3ccc(C(=O)NS(=O)(=O)c4ccc(NCC5CCOCC5)c([N+](=O)[O-])c4)c(Oc4cnc5[nH]ccc5c4)c3)CC2)=C(c2ccc(Cl)cc2)C1 [Venetoclax] + COc1cc(Nc2ncc3c(n2)-c2ccc(Cl)cc2C(c2c(F)cccc2OC)=NC3)ccc1C(=O)O [Alisertib] (first compound max 1 µM, 7x7, partner max 10 µM)",-0.0257,0.0132,-0.046,0.134,-0.0707,0.194,0.0149,-0.0586,-0.0843,-0.0072,0.0421,0.0371,0.0765,-0.0049,-0.0131,-0.0694,0.0522,0.0279,0.01,-0.0381
"CC1(C)CCC(CN2CCN(c3ccc(C(=O)NS(=O)(=O)c4ccc(NCC5CCOCC5)c([N+](=O)[O-])c4)c(Oc4cnc5[nH]ccc5c4)c3)CC2)=C(c2ccc(Cl)cc2)C1 [Venetoclax] + C[C@@H]1COCCN1C2=NC(=NC(=C2)C3(CC3)[S@](=N)(=O)C)C4=C5C=CNC5=NC=C4 [AZD6738] (first compound max 1 µM, 7x7, partner max 10 µM)",-0.06,0.0267,-0.0275,-0.0328,-0.0801,-0.0039,-0.0228,-0.0355,-0.0168,-0.0084,0.0075,-0.0331,0.0496,-0.0814,-0.0632,-0.102,0.0199,-0.0131,-0.0196,-0.0649
